Experiments:
[1] = target: T1, AKT1 E17K (Homo sapiens, UniProt P31749, E17K); test: Live cell target engagement by NanoBRET competitive probe displacement, AKT1 E17K; type: binding; conditions: transfected HEK293 cells, 2 h at 37° C., read-out: AKT1 E17K IC50: GeoMean IC50
T1 construct: expressed in transfected cells; host or cells: HEK293

[2] = target: T2, AKT1 WT (Homo sapiens, UniProt P31749); test: Live cell target engagement by NanoBRET competitive probe displacement, AKT1 WT; type: binding; conditions: transfected HEK293 cells, 2 h at 37° C., read-out: AKT1 WT IC50: GeoMean IC50
T2 construct: expressed in transfected cells; host or cells: HEK293
T2 sequence (P31749 whole entry): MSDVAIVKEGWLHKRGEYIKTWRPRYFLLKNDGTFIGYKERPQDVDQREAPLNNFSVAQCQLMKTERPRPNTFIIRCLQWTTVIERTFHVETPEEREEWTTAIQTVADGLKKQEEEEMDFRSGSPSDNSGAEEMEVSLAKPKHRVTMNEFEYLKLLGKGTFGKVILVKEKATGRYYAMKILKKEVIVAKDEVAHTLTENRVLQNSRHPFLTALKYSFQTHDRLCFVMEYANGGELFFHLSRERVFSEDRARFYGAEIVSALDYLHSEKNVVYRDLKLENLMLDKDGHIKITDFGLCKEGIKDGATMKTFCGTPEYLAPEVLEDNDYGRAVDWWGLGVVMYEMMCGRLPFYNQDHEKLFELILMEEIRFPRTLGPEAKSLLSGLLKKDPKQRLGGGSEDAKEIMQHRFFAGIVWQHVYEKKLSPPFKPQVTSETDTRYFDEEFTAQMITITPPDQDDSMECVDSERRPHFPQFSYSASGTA

[3] = system: LAPC4 prostate cancer cells, which express the AKT1 E17K allele; test: Antiproliferative effects in LAPC4 cells (CellTiter Glo, 72 h); type: cell-based; conditions: Homo sapiens, LAPC4, 72 h, read-out: LAPC4 proliferation IC50: GeoMean IC50
Procedure, shortened: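 IC50 values come from Hill-equation fitting of luminescence (cellular ATP) after 72 h compound exposure. Treated wells held 1,000 cells each, with compound delivered as DMSO dilutions. Culture medium was IMDM plus 12% FBS.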

[4] = target: T3, AKT2 (Homo sapiens, UniProt P31751); test: Live cell target engagement by NanoBRET competitive probe displacement, AKT2; type: binding; conditions: transfected HEK293 cells, 2 h at 37° C., read-out: AKT2 IC50: GeoMean IC50
T3 construct: expressed in transfected cells; host or cells: HEK293
T3 sequence (P31751 whole entry): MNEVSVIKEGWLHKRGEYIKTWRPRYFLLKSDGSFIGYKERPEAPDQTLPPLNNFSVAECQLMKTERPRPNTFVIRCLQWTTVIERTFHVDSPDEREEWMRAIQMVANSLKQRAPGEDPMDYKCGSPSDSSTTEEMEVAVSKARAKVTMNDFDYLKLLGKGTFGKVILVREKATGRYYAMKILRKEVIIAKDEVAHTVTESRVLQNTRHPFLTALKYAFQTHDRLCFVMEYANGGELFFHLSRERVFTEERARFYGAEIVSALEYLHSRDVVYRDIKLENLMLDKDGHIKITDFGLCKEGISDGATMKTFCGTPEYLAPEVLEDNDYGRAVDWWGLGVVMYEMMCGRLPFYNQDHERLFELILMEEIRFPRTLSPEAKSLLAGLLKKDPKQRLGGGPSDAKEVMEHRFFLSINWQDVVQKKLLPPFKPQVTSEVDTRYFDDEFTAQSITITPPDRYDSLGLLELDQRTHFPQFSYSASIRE

T1 sequence (P31749 whole entry E17K): as the sequence (P31749 whole entry) above, with E17K counted along it

Row | IC50 [1] [nM] | IC50 [2] [nM] | IC50 [3] [nM] | IC50 [4] [nM] | Structure (SMILES)
1 | 10 to 100 | 100 to 2000 | 100 to 2000 | ≥ 2000 | CCc1ccc2nc(-c3cccnc3N)n(-c3ccc4c(c3)CC[C@@H]4NC(=O)c3ccc(O)c(C=O)c3)c2n1 [Example 43, (S)—N-(5-(2-(2-aminopyridin-3-yl)-5-ethyl-3H-imidazo[4,5-b]pyridin-3-yl)-2,3-dihydro-1H-inden-1-yl)-3-formyl-4-hydroxybenzamide]
2 | 10 to 100 | 10 to 100 | 100 to 2000 | 100 to 2000 | Cc1cc(-n2ccc(F)n2)nc2c1nc(-c1cccnc1N)n2-c1ccc2c(c1)CC[C@@H]2NC(=O)c1ccc(O)c(C=O)c1 [Example 181, (S)—N-(5-(2-(2-aminopyridin-3-yl)-5-(3-fluoro-1H-pyrazol-1-yl)-7-methyl-3H-imidazo[4,5-b]pyridin-3-yl)-2,3-dihydro-1H-inden-1-yl)-3-formyl-4-hydroxybenzamide]
3 | 10 to 100 | 100 to 2000 | 100 to 2000 | 100 to 2000 | Nc1ncccc1-c1nc2ccc(-n3cc(F)cn3)nc2n1-c1ccc2c(c1)CC[C@@H]2NC(=O)c1ccc(O)c(C=O)c1 [Example 76, N-[(1S)-5-[2-(2-aminopyridin-3-yl)-5-(4-fluoropyrazol-1-yl)imidazo[4,5-b]pyridin-3-yl]-2,3-dihydro-1H-inden-1-yl]-3-formyl-4-hydroxybenzamide]
4 | 10 to 100 | 10 to 100 | 10 to 100 | 10 to 100 | Nc1ncccc1-c1nc2ccc(-c3ccccc3F)nc2n1-c1ccc2c(c1)CC[C@@H]2NC(=O)c1ccc(O)c(C=O)c1 [Example 21, N-[(1S)-5-[2-(2-aminopyridin-3-yl)-5-(2-fluorophenyl)imidazo[4,5-b]pyridin-3-yl]-2,3-dihydro-1H-inden-1-yl]-3-formyl-4-hydroxybenzamide]
5 | 10 to 100 | 10 to 100 | 100 to 2000 | 100 to 2000 | Nc1ncccc1-c1nc2ccc(-n3ccc(C(F)F)n3)nc2n1-c1ccc2c(c1)CC[C@@H]2NC(=O)c1ccc(O)c(C=O)c1 [Example 116, (S)—N-(5-(2-(2-aminopyridin-3-yl)-5-(3-(difluoromethyl)-1H-pyrazol-1-yl)-3H-imidazo[4,5-b]pyridin-3-yl)-2,3-dihydro-1H-inden-1-yl)-3-formyl-4-hydroxybenzamide]
6 | 10 to 100 | 100 to 2000 | 100 to 2000 | 100 to 2000 | Nc1ccn(-c2ccc3nc(-c4cccnc4N)n(-c4ccc5c(c4)CC[C@@H]5NC(=O)c4ccc(O)c(C=O)c4)c3n2)n1 [Example 134, N-[(1S)-5-[5-(3-aminopyrazol-1-yl)-2-(2-aminopyridin-3-yl)imidazo[4,5-b]pyridin-3-yl]-2,3-dihydro-1H-inden-1-yl]-3-formyl-4-hydroxybenzamide]
7 | < 10 | 10 to 100 | 10 to 100 | 100 to 2000 | CN(C)C(=O)Nc1ccc(C(=O)N[C@H]2CCc3cc(-n4c(-c5cccnc5N)nc5ccc(-n6ccc(F)n6)nc54)ccc32)cc1C=O [Example 122, N-[(1S)-5-[2-(2-aminopyridin-3-yl)-5-(3-fluoropyrazol-1-yl)imidazo[4,5-b]pyridin-3-yl]-2,3-dihydro-1H-inden-1-yl]-4-[(dimethylcarbamoyl)amino]-3-formylbenzamide]

Further lines, the molecule ahead of its results:

Row | Structure (SMILES) | IC50 [1] [nM] | IC50 [2] [nM] | IC50 [3] [nM] | IC50 [4] [nM]
8 | Cc1cc(-n2ccc(F)n2)nc2c1nc(-c1cccnc1N)n2-c1ccc2c(c1)CC[C@@H]2NC(=O)c1cc(C=O)c(O)c(F)c1F [Example 199, N-[(1S)-5-[2-(2-aminopyridin-3-yl)-5-(3-fluoropyrazol-1-yl)-7-methylimidazo[4,5-b]pyridin-3-yl]-2,3-dihydro-1H-inden-1-yl]-2,3-difluoro-5-formyl-4-hydroxybenzamide] | < 10 | < 10 | 100 to 2000 | 100 to 2000
9 | Nc1ncccc1-c1nc2ccc(-c3cnccn3)nc2n1-c1ccc2c(c1)CC[C@@H]2NC(=O)c1cc(F)c(O)c(C=O)c1 [Example 70, (S)—N-(5-(2-(2-aminopyridin-3-yl)-5-(pyrazin-2-yl)-3H-imidazo[4,5-b]pyridin-3-yl)-2,3-dihydro-1H-inden-1-yl)-3-fluoro-5-formyl-4-hydroxybenzamide] | 10 to 100 | 10 to 100 | 100 to 2000 | 100 to 2000
10 | Nc1ncccc1-c1nc2ccc(C3CC3)nc2n1-c1ccc2c(c1)CC[C@@H]2NC(=O)c1ccc(O)c(C=O)c1 [Example 49, N-[(1S)-5-[2-(2-aminopyridin-3-yl)-5-cyclopropylimidazo[4,5-b]pyridin-3-yl]-2,3-dihydro-1H-inden-1-yl]-3-formyl-4-hydroxybenzamide] | 100 to 2000 | 100 to 2000 | 100 to 2000 | ≥ 2000
11 | COc1cc(-n2cccn2)nc2c1nc(-c1cccnc1N)n2-c1ccc2c(c1)CC[C@@H]2NC(=O)c1cc(C=O)c(O)c(F)c1F [Example 222, N-[(1S)-5-[2-(2-aminopyridin-3-yl)-7-methoxy-5-(pyrazol-1-yl)imidazo[4,5-b]pyridin-3-yl]-2,3-dihydro-1H-inden-1-yl]-2,3-difluoro-5-formyl-4-hydroxybenzamide] | 10 to 100 | 10 to 100 | 10 to 100 | 10 to 100
12 | Cn1ccc(-c2ccc3nc(-c4cccnc4N)n(-c4ccc5c(c4)CC[C@@H]5NC(=O)c4cc(C=O)c(O)cc4F)c3n2)n1 [Example 241, N-[(1S)-5-[2-(2-aminopyridin-3-yl)-5-(1-methylpyrazol-3-yl)imidazo[4,5-b]pyridin-3-yl]-2,3-dihydro-1H-inden-1-yl]-2-fluoro-5-formyl-4-hydroxybenzamide] | < 10 | 10 to 100 | 10 to 100 | 100 to 2000
13 | Nc1ncccc1-c1nc2c(-n3cccn3)cc(-n3cccn3)nc2n1-c1ccc2c(c1)CC[C@@H]2NC(=O)c1ccc(O)c(C=O)c1 [Example 198, N-[(1S)-5-[2-(2-aminopyridin-3-yl)-5,7-bis(pyrazol-1-yl)imidazo[4,5-b]pyridin-3-yl]-2,3-dihydro-1H-inden-1-yl]-3-formyl-4-hydroxybenzamide] | 10 to 100 | 10 to 100 | 100 to 2000 | 100 to 2000
14 | Cc1cc(-n2cccn2)nc2c1nc(-c1cccnc1N)n2-c1ccc2c(c1)CC[C@@H]2NC(=O)c1cc(C=O)c(O)c(F)c1F [Example 153, (S)—N-(5-(2-(2-aminopyridin-3-yl)-7-methyl-5-(1H-pyrazol-1-yl)-3H-imidazo[4,5-b]pyridin-3-yl)-2,3-dihydro-1H-inden-1-yl)-2,3-difluoro-5-formyl-4-hydroxybenzamide] | 10 to 100 | 10 to 100 | 10 to 100 | 10 to 100
15 | Nc1ncccc1-c1nc2ccc(-c3ccccc3)nc2n1-c1ccc2c(c1)CC[C@@H]2Nc1nccc2c(C=O)c(O)ccc12 [Example 39, 1-{[(1S)-5-[2-(2-aminopyridin-3-yl)-5-phenylimidazo[4,5-b]pyridin-3-yl]-2,3-dihydro-1H-inden-1-yl]amino}-6-hydroxyisoquinoline-5-carbaldehyde] | 100 to 2000 | 100 to 2000 | 100 to 2000 | 100 to 2000
16 | Nc1ncccc1-c1nc2ccc(-c3cc4n(n3)CCC4)nc2n1-c1ccc2c(c1)CC[C@@H]2NC(=O)c1cc(C=O)c(O)cc1F [Example 247, N-[(1S)-5-[2-(2-aminopyridin-3-yl)-5-{4H,5H,6H-pyrrolo[1,2-b]pyrazol-2-yl}imidazo[4,5-b]pyridin-3-yl]-2,3-dihydro-1H-inden-1-yl]-2-fluoro-5-formyl-4-hydroxybenzamide] | 10 to 100 | 10 to 100 | 10 to 100 | 100 to 2000
17 | Nc1ncccc1-c1nc2ccc(-c3ccccc3)nc2n1-c1ccc2c(c1)C(=O)C[C@@H]2NC(=O)c1ccc(O)c(C=O)c1 [Example 74, N-[(1S)-5-[2-(2-aminopyridin-3-yl)-5-phenylimidazo[4,5-b]pyridin-3-yl]-3-oxo-1,2-dihydroinden-1-yl]-3-formyl-4-hydroxybenzamide] | 10 to 100 | 100 to 2000 | 100 to 2000 | 100 to 2000
18 | Cc1cc(C(=O)N[C@H]2CCc3cc(-n4c(-c5cccnc5N)nc5ccc(-c6ccccc6)nc54)ccc32)cc(C=O)c1O [Example 41, N-[(1S)-5-[2-(2-aminopyridin-3-yl)-5-phenylimidazo[4,5-b]pyridin-3-yl]-2,3-dihydro-1H-inden-1-yl]-3-formyl-4-hydroxy-5-methylbenzamide] | 100 to 2000 | 100 to 2000 | 100 to 2000 | ≥ 2000
19 | CC(=O)Nc1c(F)cc(C(=O)N[C@H]2CCc3cc(-n4c(-c5cccnc5N)nc5ccc(-c6ccccc6)nc54)ccc32)cc1C=O [Example 64, N-[(1S)-5-[2-(2-aminopyridin-3-yl)-5-phenylimidazo[4,5-b]pyridin-3-yl]-2,3-dihydro-1H-inden-1-yl]-4-acetamido-3-fluoro-5-formylbenzamide] | 10 to 100 | 10 to 100 | 10 to 100 | 10 to 100
20 | Nc1ncccc1-c1nc2c(N3CCC3)cc(-n3cccn3)nc2n1-c1ccc2c(c1)CC[C@@H]2NC(=O)c1ccc(O)c(C=O)c1 [Example 231, N-[(1S)-5-[2-(2-aminopyridin-3-yl)-7-(azetidin-1-yl)-5-(pyrazol-1-yl)imidazo[4,5-b]pyridin-3-yl]-2,3-dihydro-1H-inden-1-yl]-3-formyl-4-hydroxybenzamide] | 10 to 100 | 10 to 100 | 100 to 2000 | 100 to 2000

Source: patent US20260053834A1, “COVALENT MODIFIERS OF AKT1 AND USES THEREOF” (Terremoto Biosciences, Inc., priority 2023, published 2026)
